{
  "source": "patent US10654876B2",
  "about": "“TH-302 solid forms and methods related thereto” (Molecular Templates, Inc., priority 2014, dated 2020)",
  "key": {"[1]": {"assay": "Accelerated stability test at high temperature and high relative humidity", "format": "physicochemical", "conditions": "40° C., 75% RH, after one week", "method": "(§1) Crystalline form A of TH-302 is anhydrous which is stable to 15% relative humidity (RH) at 25° C. No change in the chemical purity of TH-302 was observed after one week when in accelerated stability tests at high temperature (40° C.) and high relative humidity (75% RH). An improvement in the physical appearance of a dosage form of a drug enhances both physician and patient acceptance and increases the likelihood of success of the treatment."}, "[2]": {"assay": "Stability of crystalline form A to relative humidity", "format": "physicochemical", "conditions": "15% relative humidity (RH) at 25° C.; anhydrous crystalline form A", "method": "as §1"}},
  "data": [
    {"molecule": "Cn1c(COP(=O)(NCCBr)NCCBr)cnc1[N+](=O)[O-]", "note": "[TH-302, N,N′-Bis(2-bromoethyl)phosphorodiamidic acid (1-methyl-2-nitro-1H-imidazol-5-yl)methyl ester]", "values": [
      {"measurement": "change in the chemical purity", "setting": "[1]", "value": "No change"},
      {"measurement": "stability to relative humidity", "setting": "[2]", "value": "stable"}
    ]}
  ]
}
